Reference: patent US20250136586A1, “Substituted 7-(Pyrimidin-4-yl)Quinolin-4(1H)-One Compounds as Cyclin Dependent Kinase Inhibitors” (BeiGene, Ltd., priority 2022, published 2025)

What was measured:
[1] = target: CDK4/Cyclin D1 (Homo sapiens (Human), UniProt P11802); assay: TR-FRET kinase inhibition assay, CDK4/Cyclin D1; type: biochemical; settings: 1 mM ATP, 0.15 μM Rb (Ser780)-biotin substrate, read-out: CDK4D1 IC50
In short: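 Kinase was preincubated with compound for 60 min at room temperature, then reacted with ATP and Rb (Ser780)-biotin substrate for 120 min. IC50 came from a four-parameter logistic fit.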

[2] = target: CDK6/Cyclin D3 (Homo sapiens (Human), UniProt Q00534); assay: TR-FRET kinase inhibition assay, CDK6/Cyclin D3; type: biochemical; settings: 1 mM ATP, 0.15 μM Rb (Ser780)-biotin substrate, read-out: CDK6D3 IC50
CDK6/Cyclin D3, sequence (Q00534 whole entry): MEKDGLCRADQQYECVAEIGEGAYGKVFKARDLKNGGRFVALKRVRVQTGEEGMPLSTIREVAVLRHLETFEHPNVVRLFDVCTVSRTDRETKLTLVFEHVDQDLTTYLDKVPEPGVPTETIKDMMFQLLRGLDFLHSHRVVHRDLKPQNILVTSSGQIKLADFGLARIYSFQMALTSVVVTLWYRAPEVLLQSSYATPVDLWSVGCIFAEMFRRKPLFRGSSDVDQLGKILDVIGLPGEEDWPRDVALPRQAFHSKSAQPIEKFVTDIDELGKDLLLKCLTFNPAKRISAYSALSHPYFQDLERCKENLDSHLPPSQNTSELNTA
CDK6/Cyclin D3, sequence (P30281 whole entry partner): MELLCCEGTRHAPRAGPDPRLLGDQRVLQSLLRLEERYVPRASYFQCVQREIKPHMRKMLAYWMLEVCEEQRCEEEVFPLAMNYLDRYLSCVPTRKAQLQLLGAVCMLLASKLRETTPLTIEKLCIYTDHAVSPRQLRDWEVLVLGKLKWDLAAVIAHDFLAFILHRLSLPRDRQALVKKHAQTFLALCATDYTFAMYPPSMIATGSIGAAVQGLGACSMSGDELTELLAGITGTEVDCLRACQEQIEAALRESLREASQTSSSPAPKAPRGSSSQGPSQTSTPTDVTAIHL
In short: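 Kinase preincubated 60 min at room temperature with 0–10 μM compound; reaction started with 1 mM ATP and 0.15 μM Rb (Ser780)-biotin, run 120 min at room temperature in HEPES pH 7.0, 50 mM MgCl2. pRb detected by TR-FRET (665/620 nm ratio); IC50 from four-parameter logistic fit.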

CDK4/Cyclin D1, sequence (P11802 whole entry): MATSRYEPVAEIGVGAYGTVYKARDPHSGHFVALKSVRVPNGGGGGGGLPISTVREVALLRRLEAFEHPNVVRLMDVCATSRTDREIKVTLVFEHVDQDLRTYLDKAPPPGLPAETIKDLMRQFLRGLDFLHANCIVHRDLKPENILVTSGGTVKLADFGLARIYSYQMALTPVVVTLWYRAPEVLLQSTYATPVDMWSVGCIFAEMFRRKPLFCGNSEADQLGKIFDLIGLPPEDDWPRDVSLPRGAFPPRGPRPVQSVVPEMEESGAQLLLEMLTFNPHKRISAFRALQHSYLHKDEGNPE
CDK4/Cyclin D1, sequence (P24385 whole entry partner): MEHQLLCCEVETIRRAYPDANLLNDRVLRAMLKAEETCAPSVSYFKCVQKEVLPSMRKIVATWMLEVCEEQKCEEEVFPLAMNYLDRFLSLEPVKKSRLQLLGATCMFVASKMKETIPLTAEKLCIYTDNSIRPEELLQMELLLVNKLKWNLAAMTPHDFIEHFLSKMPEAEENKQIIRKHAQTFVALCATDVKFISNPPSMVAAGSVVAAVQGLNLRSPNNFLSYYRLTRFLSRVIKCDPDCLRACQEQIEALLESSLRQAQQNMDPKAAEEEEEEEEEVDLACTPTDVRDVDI

| Structure (SMILES) | IC50 [1] [µM] | IC50 [2] [µM] |
| --- | --- | --- |
| CC(C)n1c(CN2CCC[C@H](C#N)C2)cc(=O)c2ccc(-c3nc(N[C@@H]4CCOC[C@H]4O)ncc3F)cc21 [Example 89, (S)-1-((7-(5-fluoro-2-(((3S,4R)-3-hydroxytetrahydro-2H-pyran-4-yl)amino)pyrimidin-4-yl)-1-isopropyl-4-oxo-1,4-dihydroquinolin-2-yl)methyl)piperidine-3-carbonitrile] | 0.0038 | 0.407 |
| CC(C)n1c(CN2CCC(C#N)CC2)cc(=O)c2ccc(-c3nc(N[C@@H]4CCOC[C@H]4O)ncc3F)cc21 [Example 37, 1-((7-(5-fluoro-2-(((3S,4R)-3-hydroxytetrahydro-2H-pyran-4-yl)amino)pyrimidin-4-yl)-1-isopropyl-4-oxo-1,4-dihydroquinolin-2-yl)methyl)piperidine-4-carbonitrile] | 0.022 | 0.682 |
| CC(C)n1c(CN2CC[C@H](O)C2)cc(=O)c2ccc(-c3nc(N[C@@H]4CCOC[C@H]4O)ncc3F)cc21 [Example 86, 7-(5-fluoro-2-(((3S,4R)-3-hydroxytetrahydro-2H-pyran-4-yl)amino)pyrimidin-4-yl)-2-(((S)-3-hydroxypyrrolidin-1-yl)methyl)-1-isopropylquinolin-4(1H)-one] | 0.021 | 0.777 |
| CC(C)n1c(CN2CC(F)C2)cc(=O)c2ccc(-c3nc(N[C@@H]4CCOC[C@H]4O)ncc3F)cc21 [Example 74, 7-(5-fluoro-2-(((3S,4R)-3-hydroxytetrahydro-2H-pyran-4-yl)amino)pyrimidin-4-yl)-2-((3-fluoroazetidin-1-yl)methyl)-1-isopropylquinolin-4(1H)-one] | 0.03 | 0.81 |
| CC(C)n1c(CN2CCC(O)CC2)cc(=O)c2ccc(-c3nc(N[C@@H]4CCOC[C@H]4O)ncc3F)cc21 [Example 39, 7-(5-fluoro-2-(((3S,4R)-3-hydroxytetrahydro-2H-pyran-4-yl)amino)pyrimidin-4-yl)-2-((4-hydroxypiperidin-1-yl)methyl)-1-isopropylquinolin-4(1H)-one] | 0.024 | 0.744 |
| CNC(=O)c1cc(=O)c2ccc(-c3nc(N[C@@H]4CCOC[C@H]4O)ncc3Cl)cc2n1C(C)C [Example 14, 7-(5-chloro-2-(((3S,4R)-3-hydroxytetrahydro-2H-pyran-4-yl)amino)pyrimidin-4-yl)-1-isopropyl-N-methyl-4-oxo-1,4-dihydroquinoline-2-carboxamide] | 0.042 | 0.714 |
| CC(C)n1c(CNc2ccc(F)cc2)cc(=O)c2ccc(-c3nc(N[C@@H]4CCOC[C@H]4O)ncc3F)cc21 [Example 96, 7-(5-fluoro-2-(((3S,4R)-3-hydroxytetrahydro-2H-pyran-4-yl)amino)pyrimidin-4-yl)-2-(((4-fluorophenyl)amino)methyl)-1-isopropylquinolin-4(1H)-one] | 0.021 | 0.273 |
| CC(C)n1c(CN2CCC(F)(F)C2)cc(=O)c2ccc(-c3nc(N[C@@H]4CCOC[C@H]4O)ncc3F)cc21 [Example 80, 2-((3,3-difluoropyrrolidin-1-yl)methyl)-7-(5-fluoro-2-(((3S,4R)-3-hydroxytetrahydro-2H-pyran-4-yl)amino)pyrimidin-4-yl)-1-isopropylquinolin-4(1H)-one] | 0.022 | 0.616 |
| CC(C)n1c(CNC2CC2)cc(=O)c2ccc(-c3nc(N[C@@H]4CCOC[C@H]4O)ncc3F)cc21 [Example 48, 2-((cyclopropylamino)methyl)-7-(5-fluoro-2-(((3S,4R)-3-hydroxytetrahydro-2H-pyran-4-yl)amino)pyrimidin-4-yl)-1-isopropylquinolin-4(1H)-one] | 0.0091 | 0.209 |
| Cc1c(CN)n(C(C)C)c2cc(-c3nc(N[C@@H]4CCOC[C@H]4O)ncc3F)ccc2c1=O [Example 120, 2-(aminomethyl)-7-(5-fluoro-2-(((3S,4R)-3-hydroxytetrahydro-2H-pyran-4-yl)amino)pyrimidin-4-yl)-1-isopropyl-3-methylquinolin-4(1H)-one] | 0.0059 | 0.265 |
| CC(C)n1c(CN2CC[C@@H](O)C2)cc(=O)c2ccc(-c3nc(N[C@@H]4CCOC[C@H]4O)ncc3F)cc21 [Example 87, 7-(5-fluoro-2-(((3S,4R)-3-hydroxytetrahydro-2H-pyran-4-yl)amino)pyrimidin-4-yl)-2-(((R)-3-hydroxypyrrolidin-1-yl)methyl)-1-isopropylquinolin-4(1H)-one] | 0.022 | 0.682 |
| CC(C)n1c(C2CCCN2)cc(=O)c2ccc(-c3nc(N[C@@H]4CCOC[C@H]4O)ncc3F)cc21 (stereo partly drawn) [Example 388, 7-(5-fluoro-2-(((3S,4R)-3-hydroxytetrahydro-2H-pyran-4-yl)amino)pyrimidin-4-yl)-1-isopropyl-2-(pyrrolidin-2-yl)quinolin-4(1H)-one] | 0.01 | 0.45 |
| CC(C)n1c(CN2CC3CC2C3)cc(=O)c2ccc(-c3nc(N[C@@H]4CCOC[C@H]4O)ncc3F)cc21 [Example 43, 2-((2-azabicyclo[2.1.1]hexan-2-yl)methyl)-7-(5-fluoro-2-(((3S,4R)-3-hydroxytetrahydro-2H-pyran-4-yl)amino)pyrimidin-4-yl)-1-isopropylquinolin-4(1H)-one] | 0.025 | 1.3 |
| CC(C)n1c(CNC2CC(F)(F)C2)cc(=O)c2ccc(-c3nc(N[C@@H]4CCOC[C@H]4O)ncc3F)cc21 [Example 77, 2-(((3,3-difluorocyclobutyl)amino)methyl)-7-(5-fluoro-2-(((3S,4R)-3-hydroxytetrahydro-2H-pyran-4-yl)amino)pyrimidin-4-yl)-1-isopropylquinolin-4(1H)-one] | 0.026 | 0.598 |
| CC(C)n1c(CN2CCO[C@@H](C)C2)cc(=O)c2ccc(-c3nc(N[C@@H]4CCOC[C@H]4O)ncc3F)cc21 [Example 62, 7-(5-fluoro-2-(((3S,4R)-3-hydroxytetrahydro-2H-pyran-4-yl)amino)pyrimidin-4-yl)-1-isopropyl-2-(((S)-2-methylmorpholino)methyl)quinolin-4(1H)-one] | 0.017 | 0.255 |
| CC(C)n1c(CN2CCC[C@@]3(CCNC3=O)C2)cc(=O)c2ccc(-c3nc(N[C@@H]4CCOC[C@H]4O)ncc3F)cc21 [Example 104, (R)-7-((7-(5-fluoro-2-(((3S,4R)-3-hydroxytetrahydro-2H-pyran-4-yl)amino)pyrimidin-4-yl)-1-isopropyl-4-oxo-1,4-dihydroquinolin-2-yl)methyl)-2,7-diazaspiro[4.5]decan-1-one] | 0.024 | 0.139 |
| CC(C)n1c(CN2CC[C@@H](F)[C@H](O)C2)cc(=O)c2ccc(-c3nc(N[C@@H]4CCOC[C@H]4O)ncc3F)cc21 [Example 84, 7-(5-fluoro-2-(((3S,4R)-3-hydroxytetrahydro-2H-pyran-4-yl)amino)pyrimidin-4-yl)-2-(((3R,4R)-4-fluoro-3-hydroxypiperidin-1-yl)methyl)-1-isopropylquinolin-4(1H)-one] | 0.0068 | 0.17 |
| CC(C)n1c(CN2CCC[C@@H](O)C2)cc(=O)c2ccc(-c3nc(N[C@@H]4CCOC[C@H]4O)ncc3F)cc21 [Example 57, 7-(5-fluoro-2-(((3S,4R)-3-hydroxytetrahydro-2H-pyran-4-yl)amino)pyrimidin-4-yl)-2-(((R)-3-hydroxypiperidin-1-yl)methyl)-1-isopropylquinolin-4(1H)-one] | 0.016 | 0.352 |
| Cc1cc(=O)c2ccc(-c3nc(N[C@@H]4CCOC[C@H]4O)ncc3F)cc2n1C(C)C [Example 6, 7-(5-fluoro-2-(((3S,4R)-3-hydroxytetrahydro-2H-pyran-4-yl)amino)pyrimidin-4-yl)-1-isopropyl-2-methylquinolin-4(1H)-one] | 0.015 | 0.345 |
| CC(C)n1c(CN2CCC[C@@]3(CCN(C)C3=O)C2)cc(=O)c2ccc(-c3nc(N[C@@H]4CCOC[C@H]4O)ncc3F)cc21 [Example 51, (R)-7-((7-(5-fluoro-2-(((3S,4R)-3-hydroxytetrahydro-2H-pyran-4-yl)amino)pyrimidin-4-yl)-1-isopropyl-4-oxo-1,4-dihydroquinolin-2-yl)methyl)-2-methyl-2,7-diazaspiro[4,5]decan-1-one] | 0.054 | 0.648 |
| Cc1c(C)n(C(C)C)c2cc(-c3nc(N[C@@H]4CCOC[C@H]4O)ncc3F)ccc2c1=O [Example 16, 7-(5-fluoro-2-(((3S,4R)-3-hydroxytetrahydro-2H-pyran-4-yl)amino)pyrimidin-4-yl)-1-isopropyl-2,3-dimethylquinolin-4(1H)-one] | 0.0083 | 0.257 |
| CC(C)n1c(C(=O)NCCC#N)cc(=O)c2ccc(-c3nc(N[C@@H]4CCOC[C@H]4O)ncc3Cl)cc21 [Example 21, 7-(5-chloro-2-(((3S,4R)-3-hydroxytetrahydro-2H-pyran-4-yl)amino)pyrimidin-4-yl)-N-(2-cyanoethyl)-1-isopropyl-4-oxo-1,4-dihydroquinoline-2-carboxamide] | 0.035 | 0.385 |
| CC(C)n1c(CN2C3CCC2COC3)cc(=O)c2ccc(-c3nc(N[C@@H]4CCOC[C@H]4O)ncc3F)cc21 [Example 81, 2-((3-oxa-8-azabicyclo[3.2.1]octan-8-yl)methyl)-7-(5-fluoro-2-(((3S,4R)-3-hydroxytetrahydro-2H-pyran-4-yl)amino)pyrimidin-4-yl)-1-isopropylquinolin-4(1H)-one] | 0.023 | 0.483 |
| CC(C)n1c(CNc2cnn(C)c2)cc(=O)c2ccc(-c3nc(N[C@@H]4CCOC[C@H]4O)ncc3F)cc21 [Example 78, 7-(5-fluoro-2-(((3S,4R)-3-hydroxytetrahydro-2H-pyran-4-yl)amino)pyrimidin-4-yl)-1-isopropyl-2-(((1-methyl-1H-pyrazol-4-yl)amino)methyl)quinolin-4(1H)-one] | 0.022 | 0.352 |
